Measured values published in patent publication US20070276034A1, “Compounds, compositions and methods for the treatment of synucleinopathies” (priority 2002, published 2007).
Where two headings read alike, the source gives them in different places.

Assays:
Type in all cases: biochemical
NAC fibrils = target: T1, NAC fibrils (Homo sapiens, UniProt P37840); experiment: Thioflavin T fluorometry - disruption of Parkinson's disease NAC fibrils; details: 3 days; for inhibition: 25 μM pre-fibrillized NAC, 37° C., read-out: % Inhibition NAC (result ± S.D.); for disruption/disassembly of pre-formed NAC fibrils (in words): all concentrations tested (ratios 1:1 to 1:0.001)
T1 construct: NAC is a 35-amino acid fragment of α-synuclein; purchased Bachem Inc
Procedure: (§1) In this assay, Thioflavin T binds specifically to NAC fibrils, and this binding produces a fluorescence enhancement at 485 nm that is directly proportional to the amount of NAC fibrils present. The higher the fluorescence, the greater the amount of NAC fibrils present (Naki et al, Lab. Invest. 65:104-110, 1991; Levine III, Protein Sci. 2:404-410, 1993; Amyloid: Int. J. Exp. Clin. Invest. 2:1-6, 1995).
(§2) In this study, 25 μM of pre-fibrillized NAC (Bachem Inc) was incubated at 37° C. for 3 days either alone or in the presence of dihydroxy synthetic analog compounds #1, 3, 23, 26, 52, 63, 66, 67, or EDTA (at NAC:test compound weight ratios of 1:1, 1:0.1, 1:0.01 or 1:0.001). Following 3-days of co-incubation, 50 βl of each incubation mixture was transferred into a 96-well microtiter plate containing 150 μl of distilled water and 50 μl of a Thioflavin T solution (i.e. 500 mM Thioflavin T in 250 mM phosphate buffer, pH 6.8). The fluorescence was read at 485 nm (444 nm excitation wavelength) using an ELISA plate fluorometer after subtraction with buffer alone or compound alone, as blank.

monomeric Aβ 1-42 = target: T2, monomeric Aβ 1-42 (Homo sapiens, UniProt P05067); experiment: SDS-PAGE/Western blot of Aβ 1-42 after incubation with compounds; details: 25 μM pre-fibrillized Aβ 1-42, 37° C., 3 days, 0.2 μm filtrate, antibody 6E10
T2 construct: purchased Bachem Inc
Procedure: In this latter study, triplicate samples of pre-fibrillized Aβ 1-42 (25 μM) was incubated at 37° C. for 3 days, alone or in the presence of the compounds or EDTA. Five micrograms of each sample was then filtered through a 0.2 μm filter. Protein recovered from the filtrate was then loaded, and ran on a 10-20% Tris-Tricine SDS-PAGE, blotted to nitrocellulose and detected using an Aβ-antibody (clone 6E10; Senetek).

IAPP fibrils [1] = target: T3, IAPP fibrils (Homo sapiens, UniProt P10997); experiment: Thioflavin T fluorometry - disruption of type 2 diabetes IAPP fibrils; details: 25 μM pre-fibrillized IAPP, 37° C., 3 days, read-out: % Inhibition IAPP (result ± S.D.)
T3 construct: purchased Bachem Inc
T3 sequence (P10997 34-70 limits assumed): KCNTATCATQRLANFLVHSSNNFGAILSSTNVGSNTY
Procedure: as §1, with “assay” for “assay,”, “fibrillar amyloid,” for “NAC fibrils,”, “IAPP” for “NAC”
as §2, with “pre-fibrillized IAPP” for “pre-fibrillized NAC”, “either alone,” for “either alone”, “of one of the” for “of dihydroxy synthetic analog”, “compounds” for “compounds #1, 3, 23, 26, 52, 63, 66, 67,”, “(at IAPP:test” for “(at NAC:test”, “50 μl” for “50 βl”

IAPP fibrils [2] = target: T3, IAPP fibrils; experiment: Congo red binding assay with IAPP fibrils; details: 3-day incubation
Procedure: In the Congo red binding assay the ability of a given test compound to alter amyloid (in this case, IAPP) binding to Congo red is quantified. In this assay, IAPP and test compounds were incubated for 3 days and then vacuum filtered through a 0.2 μm filter. The amount of IAPP retained in the filter was then quantitated following staining of the filter with Congo red. After appropriate washing of the filter, any lowering of the Congo red color on the filter in the presence of the test compound (compared to the Congo red staining of the amyloid protein in the absence of the test compound) was indicative of the test compound's ability to diminish/alter the amount of aggregated and congophilic IAPP.
In the study, the ability of IAPP fibrils to bind Congo red in the absence or presence of increasing amounts of the compounds or EDTA (at IAPP:test compound weight ratios of 1:1, 1:0.1, 1:0.01 or 1:0.001) was determined.

Aβ 1-42 fibrils = target: T4, Aβ 1-42 fibrils (Homo sapiens, UniProt P05067); experiment: Thioflavin T fluorometry - disruption of pre-formed Aβ 1-42 Alzheimer's fibrils; details: 25 μM pre-fibrillized Aβ 1-42, 37° C., 3 days, read-out: % Inhibition Aβ (result ± S.D.)
T4 construct: purchased Bachem Inc
Source text: In one study, Thioflavin T fluorometry was used to determine the effects of the compounds, and of EDTA (as a negative control). In this assay Thioflavin T binds specifically to fibrillar amyloid, and this binding produces a fluorescence enhancement at 485 nm that is directly proportional to the amount of amyloid fibrils formed. The higher the fluorescence, the greater the amount of amyloid fibrils formed (Naki et al., Lab. Invest. 65:104-110, 1991; Levine III, Protein Sci. 2:404-410, 1993; Amyloid: Int. J. Exp. Clin. Invest. 2:1-6, 1995).
as §2, with “pre-fibrillized Aβ 1-42” for “pre-fibrillized NAC”, “either alone,” for “either alone”, “of one of the” for “of dihydroxy synthetic analog”, “compounds” for “compounds #1, 3, 23, 26, 52, 63, 66, 67,”, “(at Aβ:test” for “(at NAC:test”, “50 μl” for “50 βl”

[3] = NAC:test compound wt/wt ratio 1:0.001
[4] = NAC:test compound wt/wt ratio 1:0.01
[5] = NAC:test compound wt/wt ratio 1:0.1
[6] = NAC:test compound wt/wt ratio 1:1
[7] = IAPP:test compound wt/wt ratio 1:0.001
[8] = IAPP:test compound wt/wt ratio 1:0.01
[9] = IAPP:test compound wt/wt ratio 1:0.1
[10] = IAPP:test compound wt/wt ratio 1:1
[11] = Aβ:test compound wt/wt ratio 1:0.001
[12] = Aβ:test compound wt/wt ratio 1:0.01
[13] = Aβ:test compound wt/wt ratio 1:0.1
[14] = Aβ:test compound wt/wt ratio 1:1

T4 sequence (P05067 672-713): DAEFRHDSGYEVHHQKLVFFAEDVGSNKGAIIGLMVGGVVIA
T2 sequence (P05067 672-713): as above

Compound	inhibition (NAC fibrils; [3]) [%]	inhibition (NAC fibrils; [4]) [%]	inhibition (NAC fibrils; [5]) [%]	inhibition (NAC fibrils; [6]) [%]	disruption/disassembly of pre-formed NAC fibrils (in words) (NAC fibrils)	detection of Aβ 1-42 monomers (~4 kilodalton band) on Western blot (monomeric Aβ 1-42)	inhibition (IAPP fibrils [1]; [7]) [%]	inhibition (IAPP fibrils [1]; [8]) [%]	inhibition (IAPP fibrils [1]; [9]) [%]	inhibition (IAPP fibrils [1]; [10]) [%]	% Inhibition IAPP (result ± S.D.), Congo red binding (IAPP fibrils [2]; [7]) [%]	% Inhibition IAPP (result ± S.D.), Congo red binding (IAPP fibrils [2]; [8]) [%]	% Inhibition IAPP (result ± S.D.), Congo red binding (IAPP fibrils [2]; [9]) [%]	% Inhibition IAPP (result ± S.D.), Congo red binding (IAPP fibrils [2]; [10]) [%]	inhibition (Aβ 1-42 fibrils; [11]) [%]	inhibition (Aβ 1-42 fibrils; [12]) [%]	inhibition (Aβ 1-42 fibrils; [13]) [%]	inhibition (Aβ 1-42 fibrils; [14]) [%]
O=C(CCC(=O)Nc1ccc(O)c(O)c1)Nc1ccc(O)c(O)c1 [Compound 66, succinic acid bis(3,4-dihydroxyanilide)]	30.5 ± 9.55	43.4 ± 3.45	82.5 ± 5.37	98.9 ± 0.65	dose-dependent disruption/disassembly	not detected	11.1 ± 5.28	47.6 ± 8.16	94 ± 2.88	98.5 ± 0.06	4.8 ± 1.86	5.7 ± 4.23	15.7 ± 2.53	41.4 ± 3.84	27.1 ± 3.51	42 ± 2.36	78.3 ± 4.17	100 ± 0.68
O=C(NCc1ccc(O)c(O)c1)c1ccc(O)c(O)c1 [Compound 52, 3,4-dihydroxybenzoic acid 3,4-dihydroxybenzylamide]	13.8 ± 10.5	79.6 ± 6.43	89.2 ± 1.49	99.7 ± 1.93	dose-dependent disruption/disassembly	–	16 ± 8.42	49.2 ± 4.47	86.9 ± 3.09	97.9 ± 0.19	10.2 ± 0.52	11.0 ± 3.27	11.5 ± 1.21	31.3 ± 0.27	0	12.1 ± 0.78	53.6 ± 2.42	93.7 ± 0.41
Oc1ccc(CN(Cc2ccc(O)c(O)c2)Cc2ccc(O)c(O)c2)cc1O [Compound 75, tris(3,4-dihydroxybenzyl)amine]	–	–	–	–	–	not detected	6 ± 6.46	43.9 ± 5.34	90 ± 0.27	100 ± 0.35	2.9 ± 0.69	11.3 ± 2.24	7.4 ± 0.70	49.0 ± 1.17	17 ± 4.2	31.6 ± 4.74	84.4 ± 0.94	99 ± 0.63
O=C(CCc1ccc(O)c(O)c1)Nc1ccc(O)c(O)c1 [Compound 57, 3-(3,4-dihydroxyphenyl)propionic acid 3,4-dihydroxyanilide]	–	–	–	–	–	–	1.9 ± 5.24	37.3 ± 0.78	73.2 ± 1.19	94.1 ± 0.46	4.5 ± 0.64	8.5 ± 3.19	8.9 ± 3.90	15.7 ± 3.77	17.7 ± 7.43	19 ± 6.33	60.2 ± 3.12	88.4 ± 2.73
Oc1ccc(CN2CCN(Cc3ccc(O)c(O)c3)CC2)cc1O [Compound 9, 1,4-bis(3,4-dihydroxybenzyl)piperazine]	–	–	–	–	–	–	–	–	–	–	–	–	–	–	10.6 ± 0.93	2 ± 10.8	34.9 ± 1.69	95.1 ± 0.13
Cc1nc(-c2ccc(O)c(O)c2)cc(-c2ccc(O)c(O)c2)c1C#N [Compound 8, 4,6-bis(3,4-dihydroxyphenyl)-3-cyano-2-methylpyridine]	–	–	–	–	–	–	11.4 ± 12.8	29.6 ± 5.97	67.8 ± 1.74	72.8 ± 1.77	0.0 ± 6.46	7.2 ± 2.27	0.0 ± 2.94	0.0 ± 2.84	4.9 ± 2.27	24.7 ± 3.51	65.5 ± 0.17	70.8 ± 2.57
O=C(CCc1ccc(O)c(O)c1)NCc1ccc(O)c(O)c1 [Compound 58, 3-(3,4-dihydroxyphenyl)propionic acid 3,4-dihydroxybenzylamide]	–	–	–	–	–	not detected	8.9 ± 6.87	48.8 ± 2.05	87.6 ± 1.16	98.1 ± 1.04	0.0 ± 1.93	4.6 ± 2.35	0.7 ± 6.21	24.5 ± 0.57	20.5 ± 6.27	33.2 ± 5.16	76 ± 2.57	94.8 ± 1.67
Oc1ccc(CNCc2ccc(O)c(O)c2)cc1O [Compound 73, bis(3,4-dihydroxybenzyl)amine]	–	–	–	–	–	–	–	–	–	–	–	–	–	–	0	28.7 ± 10.3	70.9 ± 3.04	99.4 ± 0.42
